# Laboratory results taken from patent US4968609A, “Coryneform bacteria carrying recombinant DNA and a process for producing aromatic amino acids using said bacteria” (priority 1984, dated 1990).
# Key:
# [1] = test system: 3-deoxy-D-arabinoheptulonic acid-7-phosphate synthetase (DS) of Brevibacterium lactofermentum AJ 12182(AJ 12036/pAR-2); assay: DS activity of crude enzyme solution with amino acids added, strain AJ 12182 (AJ 12036/pAR-2); conditions: 1 mM each; crude enzyme of AJ 12182 (AJ 12036/pAR-2); activity with none added = 100%
# [2] = test system: 3-deoxy-D-arabinoheptulonic acid-7-phosphate synthetase (DS) of Brevibacterium lactofermentum AJ 11957; assay: DS activity of crude enzyme solution with amino acids added, strain AJ 11957; conditions: 1 mM each; crude enzyme of AJ 11957; activity with none added = 100%
# [3] = test system: 3-deoxy-D-arabinoheptulonic acid-7-phosphate synthetase (DS) of Brevibacterium lactofermentum AJ 12036; assay: DS activity of crude enzyme solution with amino acids added, strain AJ 12036; conditions: 1 mM each; crude enzyme of AJ 12036; activity with none added = 100%
# [4] = test system: 3-deoxy-D-arabinoheptulonic acid-7-phosphate synthetase (DS) of Brevibacterium lactofermentum AJ 12181(AJ 12036/pAR-1); assay: DS activity of crude enzyme solution with amino acids added, strain AJ 12181 (AJ 12036/pAR-1); conditions: 1 mM each; crude enzyme of AJ 12181 (AJ 12036/pAR-1); activity with none added = 100%
# [5] = test system: Brevibacterium lactofermentum AJ 12036 transformed with pAR-1 and pAR-2; assay: Sensitivity of retransformants to m-fluorophenylalanine; assay type: cell-based; conditions: 50 chloramphenicol-resistant retransformants of AJ 12036 with pAR-1 and pAR-2
# Protocol: After culturing at 30° C. for 2 weeks, about 25000 colonies resistant to chloramphenicol appeared, which were replicated in minimal medium (which contained 2% of glucose, 1% of ammonium sulfate, 0.3% of urea, 0.1% of KH2 PO4, 0.04% of MgSO4 ·7H2 O, 2 ppm of iron ions, 2 ppm of manganese ions, […] of thiamine hydrochloride, 50 μg/ml of biotin, 500 μg/ml of m-fluorophenylalanine and 10 μg/ml of chloramphenicol, pH 7.0, 1.8% of agar) to obtain 5 strains resistant to chloramphenicol and m-fluorophenylalanine.
# In order to confirm that the gene was present on the recombinant plasmid carrying the DNA fragment, Brevibacterium lactofermentum AJ 12036 was again transformed using the plasmids pARl and pAR-2.
# Clearly the genes imparting the m-fluorophenylalanine resistance were present on the above-described plasmids.
Compound,Residual Activity When Each Amino Acid Was Added [1],Residual Activity When Each Amino Acid Was Added [2],Residual Activity When Each Amino Acid Was Added [3],Residual Activity When Each Amino Acid Was Added [4],sensitivity to m-fluorophenylalanine [5]
"N[C@@H](Cc1ccccc1)C(=O)O [Phenylalanine, phenylalanine]",99%,107%,94%,112%,
"N[C@@H](Cc1ccc(O)cc1)C(=O)O [Tyrosine, tyrosine]",88%,,51%,109%,
N[C@@H](Cc1cccc(F)c1)C(=O)O [m-fluorophenylalanine],,,,,All of the strains demonstrated m-fluorophenylalanine resistance
